Results reported in article PMC6383986, “Fragment-Based Covalent Ligand Screening Enables Rapid Discovery of Inhibitors for the RBR E3 Ubiquitin Ligase HOIP” (Journal of the American Chemical Society, 2019).

What was measured:
[1] = biological target: T1, full-length recombinant IRAK4-FLAG (Homo sapiens, UniProt Q9NWZ3); experiment: LCMS labelling of recombinant IRAK4; format: binding; settings: 300 μM compound, 1.5 μM IRAK4, 1 h
T1 construct: recombinant full length IRAK4-FLAG; His6 (with the rest of the FlagHisAvi vector tag) (C, cleaved yes); made in house; host or cells: Sf9 insect cells (baculovirus)
T1 sequence (Q9NWZ3 whole entry): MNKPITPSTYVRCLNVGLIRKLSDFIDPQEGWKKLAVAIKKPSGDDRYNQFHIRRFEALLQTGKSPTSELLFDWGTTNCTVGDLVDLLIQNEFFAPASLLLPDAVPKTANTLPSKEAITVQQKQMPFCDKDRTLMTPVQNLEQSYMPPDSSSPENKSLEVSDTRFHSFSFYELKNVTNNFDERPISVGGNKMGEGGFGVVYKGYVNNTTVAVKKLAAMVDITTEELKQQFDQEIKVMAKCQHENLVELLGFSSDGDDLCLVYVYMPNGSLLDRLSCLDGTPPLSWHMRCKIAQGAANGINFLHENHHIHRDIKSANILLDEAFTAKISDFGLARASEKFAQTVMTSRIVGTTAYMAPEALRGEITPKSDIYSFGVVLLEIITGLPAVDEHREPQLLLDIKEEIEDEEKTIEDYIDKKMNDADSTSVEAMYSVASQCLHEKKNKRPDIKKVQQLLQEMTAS
Protocol: filter BODIPY FP S-pol 595). The percentage activity was plotted against different compound concentrations and fitted using the IC50 – 4 parameter logistic using GraFit7 Software (Supplementary Figure S17). Percentage activity was calculated by dividing each value by values for no inhibition, then multiplying it by 100. Background correction was carried out by subtracting […]
Two independent experiments were carried out in duplicate.
IRAK4 (1.5 µM) was incubated with compound (11a) (300 µM) in water at ambient temperature for 1 h (final volume 20 µL), and analyzed by LCMS. […]
kinase activity. A) Serial dilutions of compound (11a) (200 µM final top concentration) and IRAK4 […]
concentration) for 1 h before adding 5TAMRA-[…]-NH2 (100 nM final […]
concentration) and ATP (50 μM final concentration). […]
independent experiments, each performed in duplicate.
B) IRAK4 (1.5 µM) was incubated with compound (11a) (300 µM) for 1 h and analyzed by LCMS. The DMSO control was incubated for 5 h. For reference GT-hIRAK4-FLAG (tetraphosphorylated; MW = 53003 Da), compound (11a) (MW = 290 Da).
(1 picture or pasted object on this page, not shown here)

ALDH6A1 = biological target: T2, ALDH6A1 (Homo sapiens, UniProt Q02252); experiment: ABPP quantitative MS, HEK293T; format: cell-based; settings: 30 μM (11a) 7 h vs DMSO, then 3 μM (15) 2 h
T2 construct: endogenous in cells; host or cells: HEK293T (A21); MCF7 (A27)
T2 sequence (Q02252 34-535): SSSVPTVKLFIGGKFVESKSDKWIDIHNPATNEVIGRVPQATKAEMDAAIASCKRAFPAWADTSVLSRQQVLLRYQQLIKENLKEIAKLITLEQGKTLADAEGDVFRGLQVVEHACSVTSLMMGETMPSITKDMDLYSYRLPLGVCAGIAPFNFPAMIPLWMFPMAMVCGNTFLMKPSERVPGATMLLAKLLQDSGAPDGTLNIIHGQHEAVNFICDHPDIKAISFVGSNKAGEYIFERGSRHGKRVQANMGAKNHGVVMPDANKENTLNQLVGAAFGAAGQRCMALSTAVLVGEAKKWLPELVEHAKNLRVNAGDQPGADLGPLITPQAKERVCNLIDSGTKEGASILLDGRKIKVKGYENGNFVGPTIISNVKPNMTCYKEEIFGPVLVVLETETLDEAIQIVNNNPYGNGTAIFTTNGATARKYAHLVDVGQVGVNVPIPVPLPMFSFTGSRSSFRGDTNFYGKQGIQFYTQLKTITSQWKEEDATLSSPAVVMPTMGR
Protocol: (§1) control and cells treated with control compounds (11i) and (17) at 30 µM). HOIP RBR wild type […]
(§2) nm, indicating low to no labelling by (11a), and a dominant signal from the 800 channel (green).
(§3) C = HOIP RBR control (0.5 µg).
(§4) 5.2 Activity-based protein profiling – Enrichment and LC-MS
(§5) Cell culture and transfection, compound treatment, ha rvest and lysis
(§6) HEK293T cells were cultured and transfected as describ ed in section 4.8 above. MCF7 cells were seeded in 100 mm Petri dishes at 6 × 10^5 cells/dish and cultured overnight at 37 °C as described in section 4.8 above. Both cell types were treated with inhibitor (11a) (30 µM final concentration) or DMSO as described above, incubating for 7 h at 37 °C, followed by addition of clickable probe (15) (3 µM final concentration) and incubation for an additional 2 h. The cells were then harvested and lysed (50 mM Tris-HCl, pH 7.5, 1.5 mM MgCl2, 150 mM NaCl, 5% glycerol, 0.8% v/v IGEPAL-CA630, 25 mM NaF, 1 mM Na3VO4, complete protease inhibitor), and the protein concentration was determined by the BCA assay as described in section 4.7 above.
(§7) Enrichment of TCO-labelled proteins
(§8) Similar to a previously described protocol,22 tetrazine beads were generated by incubating high capacity neutravidin beads (500 µL; Thermo Scientific) with 0.1 µmol tetrazine-PEG4-biotin (Jena Bioscience) in PBS buffer over night at 4 °C, followed by blocking with 5 µL 100 mM biotin in DMSO for 30 minutes at 4 °C. The beads were washed 3× with buffer (50 mM Tris-HCl pH 7.4, 5% glycerol, 1.5 mM MgCl2, 150 mM NaCl, 1 mM Na3VO3, 5 mM NaF) supplemented with 0.4% IGEPAL CA-630 and adjusted to a 5% v/v slurry.
(§9) Lysate with a protein concentration of approx. 2 mg/mL (500 µL) were added to the TCO beads (35 µL) on a 96-well filter plate (Porvair, Dunn #240002) and incubated at 4°C for 2 h. After incubation, beads were washed using a vacuum manifold with 5 mL wash buffer 1 (WB1) (50 mM […]
(§10) (50 mM HEPES pH 8.5, 2 M urea), and 5 mL WB4 (50 mM HEPES pH 8.5). Proteins were then eluted by on bead digestion: 60 µL elution buffer (50 mM HEPES pH 8.5, 5 mM Tris-(2-carboxyethyl)phosphine, 15 mM chloroacetamide, 0.004 µg LysC/ µL (Wako chemicals), 0.004 µg trypsin/µL (Promega)) were added to the washed beads and incubated over night at room temperature. Eluates were collected by centrifugation, beads incubated with an additional 60 µL WB4, eluted and both eluates were combined and lyophilized. […]
(§11) proportional to the number of ions; this measure is referred to as ion area.24 Spectra matching to peptides were filtered according to the following criteria: mascot ion score >15, signal-to-background of the precursor ion >4, and signal -to-interference >0.5. Fold-changes were corrected for isotope purity and adjusted for interference caused by co-eluting nearly isobaric peaks.25 Protein quantification was derived from individual spectra matching to distinct peptides by using a sum-based bootstrap algorithm; 95% confidence intervals were calculated for all protein fold-changes that were quantified with more than three spectra.23 Relative protein abundance s were generated on the basis of MS1 abundances .26 Briefly, XIC peaks were matched to identified peptides. […] These values were then summed, and the mean was calculated.
(§12) In cases where fewer than 3 sequences were associated, the mean was calculated using XIC intensities from either one or two sequences.
(§13) Proteins were filtered for >1 quantified spectra matches (qusm). Residual binding was calculated […]

[2] = biological target: T3, IRAK4 (Interleukin-1 receptor-associated kinase 4) (Homo sapiens, UniProt Q9NWZ3); experiment: ABPP quantitative MS, HEK293T; format: cell-based; settings: 30 μM (11a) 7 h vs DMSO, then 3 μM (15) 2 h
T3 construct: endogenous in cells; host or cells: HEK293T (transfected with 3×FLAG HOIP RBR only)
T3 sequence (Q9NWZ3 whole entry): as the sequence (Q9NWZ3 whole entry) above
Protocol: as §1, §2, §3, §4, §5, §6, §7, §8, §9, §10, §11, §12, §13

NUDT8 = biological target: T4, NUDT8 (Homo sapiens, UniProt Q8WV74); experiment: ABPP quantitative MS, HEK293T; format: cell-based; settings: 30 μM (11a) 7 h vs DMSO, then 3 μM (15) 2 h
T4 construct: endogenous in cells; host or cells: HEK293T
T4 sequence (Q8WV74 whole entry): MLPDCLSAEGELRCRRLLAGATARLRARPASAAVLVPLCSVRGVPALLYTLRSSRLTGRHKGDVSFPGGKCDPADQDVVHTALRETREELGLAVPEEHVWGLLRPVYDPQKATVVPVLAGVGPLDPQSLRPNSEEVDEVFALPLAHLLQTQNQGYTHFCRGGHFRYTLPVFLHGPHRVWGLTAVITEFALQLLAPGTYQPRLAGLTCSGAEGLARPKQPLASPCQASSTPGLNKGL
Protocol: as §1, §2, §3, §4, §5, §6, §7, §8, §9, §10, §11, §12, §13

[3] = biological target: T5, RNF31 (E3 ubiquitin-protein ligase RNF31) (Homo sapiens, UniProt Q96EP0); experiment: ABPP quantitative MS, HEK293T; format: cell-based; settings: 30 μM (11a) 7 h vs DMSO, then 3 μM (15) 2 h
T5 construct: expressed in transfected cells; host or cells: HEK293T, transient, modified pcDNA3.1(+)
T5 sequence (Q96EP0 697-1072): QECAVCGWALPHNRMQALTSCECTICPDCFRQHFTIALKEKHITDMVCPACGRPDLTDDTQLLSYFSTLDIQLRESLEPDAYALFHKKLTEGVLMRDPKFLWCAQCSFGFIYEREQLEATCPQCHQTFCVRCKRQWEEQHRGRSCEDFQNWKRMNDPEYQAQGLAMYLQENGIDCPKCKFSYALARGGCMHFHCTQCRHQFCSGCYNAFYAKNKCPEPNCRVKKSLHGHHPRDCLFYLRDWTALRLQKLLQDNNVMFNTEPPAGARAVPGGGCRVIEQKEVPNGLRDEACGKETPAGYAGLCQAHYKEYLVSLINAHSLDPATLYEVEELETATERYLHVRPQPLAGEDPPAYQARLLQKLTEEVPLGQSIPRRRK
Protocol: as §1, §2, §3, §4, §5, §6, §7, §8, §9, §10, §11, §12, §13

TRMT61A = biological target: T6, TRMT61A (Homo sapiens, UniProt Q96FX7); experiment: ABPP quantitative MS, HEK293T; format: cell-based; settings: 30 μM (11a) 7 h vs DMSO, then 3 μM (15) 2 h
T6 construct: endogenous in cells; host or cells: HEK293T
T6 sequence (Q96FX7 whole entry): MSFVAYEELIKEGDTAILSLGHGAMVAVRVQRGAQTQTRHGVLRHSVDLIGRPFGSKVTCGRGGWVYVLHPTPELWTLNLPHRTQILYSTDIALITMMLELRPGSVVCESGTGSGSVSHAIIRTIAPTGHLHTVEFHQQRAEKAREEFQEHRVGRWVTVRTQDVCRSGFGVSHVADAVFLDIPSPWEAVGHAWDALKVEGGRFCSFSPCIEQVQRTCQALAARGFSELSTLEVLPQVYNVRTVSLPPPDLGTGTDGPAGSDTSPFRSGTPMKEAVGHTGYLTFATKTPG
Protocol: as §1, §2, §3, §4, §5, §6, §7, §8, §9, §10, §11, §12, §13

## COC(=O)/C=C/CNC(=O)c1cc2c([nH]c1=O)CCCC2 [Compound 11a]
[1]
  labelling of IRAK4-FLAG: confirmed by LCMS
ALDH6A1
  ratio: mean ratio between control and competition samples, ALDH6A1: -1.278 log2
[2]
  ratio: mean ratio between control and competition samples, IRAK4: -1.675 log2
NUDT8
  ratio: mean ratio between control and competition samples, NUDT8: -1.172 log2
[3]
  ratio: mean ratio between control and competition samples, RNF31: -2.293 log2
TRMT61A
  ratio: mean ratio between control and competition samples, TRMT61A: -1.293 log2
